Results reported in paper PMC7265341, “Quantifying CDK inhibitor selectivity in live cells” (Nature Communications, 2020).
Where two headings read alike, the source gives them in different places.

Legend:
CDK7 = CDK7 (Homo sapiens, UniProt P50613); assay: NanoBRET live-cell target engagement, NanoLuc-CDK7 in HEK-293; assay type: binding
CDK10/Cyclin L2 [1] = biological target: T1, CDK10/Cyclin L2 (Homo sapiens, UniProt Q15131); assay: cell-based
CDK8/Cyclin C = CDK8/Cyclin C (Homo sapiens, UniProt P49336); assay: NanoBRET live-cell target engagement, NanoLuc-CDK8/Cyclin C in HEK-293; assay type: binding; conditions: CDK8/C, read-out: Inhibition at 10µM (%)
CDK11B/Cyclin L2 = CDK11B/Cyclin L2 (Homo sapiens, UniProt P21127); assay: NanoBRET live-cell target engagement, CDK11B-NanoLuc/Cyclin L2 in HEK-293; assay type: binding; conditions: CDK11b/L2, read-out: Inhibition at 10µM (%)
CDK20/Cyclin H = CDK20/Cyclin H (Homo sapiens, UniProt Q8IZL9); assay: NanoBRET live-cell target engagement, NanoLuc-CDK20/Cyclin H in HEK-293; assay type: binding; conditions: read-out: Inhibition at 10µM (%), CDK20/H
CDK11A/Cyclin L2 = biological target: T2, CDK11A/Cyclin L2 (Homo sapiens, UniProt Q9UQ88); assay: NanoBRET live-cell target engagement, CDK11A-NanoLuc/Cyclin L2 in HEK-293; assay type: binding; conditions: CDK11a/L2, read-out: Inhibition at 10µM (%)
T2 sequence (Q9UQ88 1-783): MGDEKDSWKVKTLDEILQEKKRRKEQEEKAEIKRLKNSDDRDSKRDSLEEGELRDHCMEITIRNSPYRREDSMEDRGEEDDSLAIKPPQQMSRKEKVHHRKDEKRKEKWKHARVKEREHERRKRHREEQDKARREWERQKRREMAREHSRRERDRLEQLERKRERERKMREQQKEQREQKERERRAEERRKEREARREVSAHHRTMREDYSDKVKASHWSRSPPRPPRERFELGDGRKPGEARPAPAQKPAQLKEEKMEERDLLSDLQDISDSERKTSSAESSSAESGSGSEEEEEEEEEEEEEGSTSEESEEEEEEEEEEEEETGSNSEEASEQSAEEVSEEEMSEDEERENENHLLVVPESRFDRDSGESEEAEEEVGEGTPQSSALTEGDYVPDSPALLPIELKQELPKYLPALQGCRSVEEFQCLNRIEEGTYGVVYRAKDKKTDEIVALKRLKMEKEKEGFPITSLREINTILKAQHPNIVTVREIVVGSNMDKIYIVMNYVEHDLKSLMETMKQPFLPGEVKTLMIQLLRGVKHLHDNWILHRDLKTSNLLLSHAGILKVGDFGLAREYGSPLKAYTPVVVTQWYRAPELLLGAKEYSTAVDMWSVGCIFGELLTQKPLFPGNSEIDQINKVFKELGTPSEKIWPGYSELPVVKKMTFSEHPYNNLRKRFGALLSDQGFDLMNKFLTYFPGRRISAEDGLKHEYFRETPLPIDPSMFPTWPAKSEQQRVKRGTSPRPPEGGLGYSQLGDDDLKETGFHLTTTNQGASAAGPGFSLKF

CDK19/Cyclin C = CDK19/Cyclin C (Homo sapiens, UniProt Q9BWU1); assay: NanoBRET live-cell target engagement, NanoLuc-CDK19/Cyclin C in HEK-293; conditions: read-out: Inhibition at 10µM (%), CDK19/C
CDK10/Cyclin L2 [2] = biological target: T1, CDK10/Cyclin L2; assay: NanoBRET live-cell target engagement, CDK10-NanoLuc/Cyclin L2 in HEK-293; conditions: for IC50: n=1; for inhibition at 10 µM: read-out: Inhibition at 10µM (%), CDK10/L2

Sequence of CDK19/Cyclin C (Q9BWU1 whole entry): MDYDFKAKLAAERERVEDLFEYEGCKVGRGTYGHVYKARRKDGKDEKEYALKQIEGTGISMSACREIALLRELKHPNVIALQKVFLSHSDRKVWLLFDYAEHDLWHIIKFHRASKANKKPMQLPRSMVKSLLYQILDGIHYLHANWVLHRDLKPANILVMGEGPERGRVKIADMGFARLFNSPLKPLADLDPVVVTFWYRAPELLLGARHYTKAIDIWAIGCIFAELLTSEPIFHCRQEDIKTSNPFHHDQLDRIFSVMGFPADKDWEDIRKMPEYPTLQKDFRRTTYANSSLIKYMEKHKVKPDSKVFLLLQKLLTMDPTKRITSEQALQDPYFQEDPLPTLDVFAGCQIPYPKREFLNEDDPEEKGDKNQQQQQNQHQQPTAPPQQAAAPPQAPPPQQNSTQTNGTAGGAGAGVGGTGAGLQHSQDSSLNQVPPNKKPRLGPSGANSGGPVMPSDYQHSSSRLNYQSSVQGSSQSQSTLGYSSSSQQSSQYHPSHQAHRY
Sequence of CDK19/Cyclin C (P24863 whole entry partner): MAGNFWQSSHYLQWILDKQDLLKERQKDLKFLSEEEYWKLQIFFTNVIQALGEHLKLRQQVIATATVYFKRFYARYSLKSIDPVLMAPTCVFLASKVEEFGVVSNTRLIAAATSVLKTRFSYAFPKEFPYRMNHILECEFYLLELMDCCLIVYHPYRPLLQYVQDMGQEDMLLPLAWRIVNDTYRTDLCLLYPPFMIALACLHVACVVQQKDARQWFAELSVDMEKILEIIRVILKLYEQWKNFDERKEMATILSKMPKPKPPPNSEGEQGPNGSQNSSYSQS
Sequence of CDK8/Cyclin C (P49336 whole entry): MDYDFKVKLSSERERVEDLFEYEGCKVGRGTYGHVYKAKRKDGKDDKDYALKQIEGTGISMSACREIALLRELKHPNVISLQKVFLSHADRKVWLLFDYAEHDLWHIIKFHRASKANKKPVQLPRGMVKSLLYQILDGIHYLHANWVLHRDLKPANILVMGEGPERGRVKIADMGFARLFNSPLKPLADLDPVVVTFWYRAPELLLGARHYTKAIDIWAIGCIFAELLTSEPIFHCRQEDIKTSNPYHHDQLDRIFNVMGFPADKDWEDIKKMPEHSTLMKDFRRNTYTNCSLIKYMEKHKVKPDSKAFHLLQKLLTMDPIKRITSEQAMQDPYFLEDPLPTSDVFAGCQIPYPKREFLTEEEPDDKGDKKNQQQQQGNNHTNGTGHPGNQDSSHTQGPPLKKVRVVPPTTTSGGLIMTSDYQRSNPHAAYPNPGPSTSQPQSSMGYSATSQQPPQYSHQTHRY
Sequence of CDK8/Cyclin C (P24863 whole entry partner): as the sequence (P24863 whole entry partner) above
Sequence of CDK11B/Cyclin L2 (P21127 1-782 isoform P21127-2): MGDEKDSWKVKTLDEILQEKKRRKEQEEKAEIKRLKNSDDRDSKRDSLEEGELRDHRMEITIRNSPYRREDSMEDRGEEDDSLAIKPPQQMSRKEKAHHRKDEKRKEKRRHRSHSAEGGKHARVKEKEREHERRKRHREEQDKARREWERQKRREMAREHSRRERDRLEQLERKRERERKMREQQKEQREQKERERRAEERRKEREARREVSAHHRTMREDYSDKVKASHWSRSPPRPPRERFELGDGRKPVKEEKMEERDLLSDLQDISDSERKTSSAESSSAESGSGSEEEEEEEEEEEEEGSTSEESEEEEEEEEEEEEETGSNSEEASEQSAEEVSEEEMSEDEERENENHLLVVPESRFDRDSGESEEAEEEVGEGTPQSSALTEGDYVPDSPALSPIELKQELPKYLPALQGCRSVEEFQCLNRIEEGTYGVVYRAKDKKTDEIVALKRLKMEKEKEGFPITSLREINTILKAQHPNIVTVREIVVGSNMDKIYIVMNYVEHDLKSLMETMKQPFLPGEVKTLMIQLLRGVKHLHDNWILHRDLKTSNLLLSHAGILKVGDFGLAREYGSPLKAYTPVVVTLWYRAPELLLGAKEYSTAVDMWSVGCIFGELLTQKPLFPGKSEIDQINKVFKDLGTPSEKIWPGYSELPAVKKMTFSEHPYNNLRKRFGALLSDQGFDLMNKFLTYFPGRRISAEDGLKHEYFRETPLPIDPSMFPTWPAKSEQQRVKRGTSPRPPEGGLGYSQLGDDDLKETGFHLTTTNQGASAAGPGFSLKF
Sequence of CDK7 (P50613 whole entry): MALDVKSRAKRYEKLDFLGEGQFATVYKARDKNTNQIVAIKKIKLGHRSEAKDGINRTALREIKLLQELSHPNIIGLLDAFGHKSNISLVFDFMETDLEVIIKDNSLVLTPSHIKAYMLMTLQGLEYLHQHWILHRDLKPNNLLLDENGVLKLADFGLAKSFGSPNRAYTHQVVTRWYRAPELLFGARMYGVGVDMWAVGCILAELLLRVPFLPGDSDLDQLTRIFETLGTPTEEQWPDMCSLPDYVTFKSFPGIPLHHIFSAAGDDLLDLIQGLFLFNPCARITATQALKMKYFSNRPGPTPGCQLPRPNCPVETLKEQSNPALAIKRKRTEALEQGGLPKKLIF
T1 sequence (Q15131 whole entry): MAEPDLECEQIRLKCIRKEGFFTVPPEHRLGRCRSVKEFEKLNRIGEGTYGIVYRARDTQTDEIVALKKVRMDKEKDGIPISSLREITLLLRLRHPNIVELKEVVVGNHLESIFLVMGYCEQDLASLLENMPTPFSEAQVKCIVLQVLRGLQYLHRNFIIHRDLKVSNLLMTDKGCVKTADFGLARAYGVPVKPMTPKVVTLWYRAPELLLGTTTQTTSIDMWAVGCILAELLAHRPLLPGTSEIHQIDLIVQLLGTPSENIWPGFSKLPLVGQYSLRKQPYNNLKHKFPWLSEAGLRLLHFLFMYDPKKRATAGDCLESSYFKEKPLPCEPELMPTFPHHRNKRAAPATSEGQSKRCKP
Sequence of CDK20/Cyclin H (Q8IZL9 whole entry): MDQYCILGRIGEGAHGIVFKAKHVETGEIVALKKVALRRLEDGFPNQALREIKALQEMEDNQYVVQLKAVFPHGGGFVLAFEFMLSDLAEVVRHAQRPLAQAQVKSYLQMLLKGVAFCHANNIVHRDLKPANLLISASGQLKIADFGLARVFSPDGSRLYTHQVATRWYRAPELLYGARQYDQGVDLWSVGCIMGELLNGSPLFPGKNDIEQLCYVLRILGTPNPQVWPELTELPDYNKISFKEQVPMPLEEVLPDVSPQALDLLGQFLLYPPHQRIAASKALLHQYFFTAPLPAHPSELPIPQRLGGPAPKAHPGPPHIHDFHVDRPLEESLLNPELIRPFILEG
Sequence of CDK20/Cyclin H (P51946 whole entry partner): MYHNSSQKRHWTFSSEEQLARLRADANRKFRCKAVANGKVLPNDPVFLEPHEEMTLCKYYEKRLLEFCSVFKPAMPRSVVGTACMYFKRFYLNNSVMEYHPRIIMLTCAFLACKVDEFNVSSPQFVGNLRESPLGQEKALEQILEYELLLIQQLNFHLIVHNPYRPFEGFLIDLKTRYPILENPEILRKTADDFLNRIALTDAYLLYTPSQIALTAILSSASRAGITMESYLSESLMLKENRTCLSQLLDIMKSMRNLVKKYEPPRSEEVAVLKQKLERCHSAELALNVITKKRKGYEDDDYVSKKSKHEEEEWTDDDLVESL

CCc1cnn2c(NCc3ccc[n+]([O-])c3)cc(N3CCCC[C@H]3CCO)nc12 [Dinaciclib]
inhibition at 10 µM (CDK7; CDK7, experiment 1, read-out: Inhibition at 10µM (%)): 94.8%
inhibition at 10 µM (CDK7; CDK7, experiment 2, read-out: Inhibition at 10µM (%)): 91.5%
inhibition at 10 µM (CDK7; read-out: Inhibition at 10µM (%), CDK7, average): 93.1%
IC50 (CDK10/Cyclin L2 [1]): 0.72 µM
inhibition at 10 µM (CDK8/Cyclin C; average): 24.5%
inhibition at 10 µM (CDK8/Cyclin C; experiment 1): 40.6%
inhibition at 10 µM (CDK8/Cyclin C; experiment 2): 8.4%
inhibition at 10 µM (CDK11B/Cyclin L2; average): 45.5%
inhibition at 10 µM (CDK11B/Cyclin L2; experiment 1): 46.1%
inhibition at 10 µM (CDK11B/Cyclin L2; experiment 2): 45%
inhibition at 10 µM (CDK20/Cyclin H; experiment 1): 71.7%
inhibition at 10 µM (CDK20/Cyclin H; experiment 2): 78%
inhibition at 10 µM (CDK11A/Cyclin L2; average): 33%
inhibition at 10 µM (CDK11A/Cyclin L2; experiment 1): 36%
inhibition at 10 µM (CDK11A/Cyclin L2; experiment 2): 29.9%
inhibition at 10 µM (CDK19/Cyclin C; average): 35.5%
inhibition at 10 µM (CDK19/Cyclin C; experiment 1): 46.2%
inhibition at 10 µM (CDK19/Cyclin C; experiment 2): 24.7%
IC50 (CDK10/Cyclin L2 [2]; IC50, [Probe 1] 0.5 µM): 0.85 µM
IC50 (CDK10/Cyclin L2 [2]; IC50, [Probe 1] 1 µM): 0.74 µM
inhibition at 10 µM (CDK10/Cyclin L2 [2]; average): 74.8%
inhibition at 10 µM (CDK10/Cyclin L2 [2]; experiment 1): 77.5%
inhibition at 10 µM (CDK10/Cyclin L2 [2]; experiment 2): 72.2%
